In US12391672B2, “Solid forms comprising (S)-4-(4-(4-(((2-(2,6-dioxopiperidin-3-yl)-1-oxoisoindolin-4-yl)oxy)methyl)benzyl)piperazin-1-yl)-3-fluorobenzonitrile and salts thereof, and compositions comprising and methods of using the same” (Celgene Corporation, priority 2019, dated 2025):
“Also recorded” adds a separate entry of the source.

Legend:
[1] = Solid state stability under accelerated storage conditions; assay type: physicochemical
Procedure, shortened: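 Solid forms stored at 60 °C and 60 °C/75% RH (Form A 1 week, Form B 2 weeks); Form K held 14 d at 40 °C, 40 °C/75% RH, 60 °C, 60 °C/75% RH and light, versus refrigerated/ambient. Assessed by DSC/TGA, appearance, HPLC purity, chiral HPLC (S-isomer area %) and XRPD post-DVS.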

[2] = Solubility of polymorphic forms in physiologically relevant media and final pH; assay type: physicochemical
Source text: Solubility data of the several polymorphic forms of Compound 1 in physiologically relevant media and the final pH of these solutions are summarized in the following tables.

N#Cc1ccc(N2CCN(Cc3ccc(COc4cccc5c4CN([C@H]4CCC(=O)NC4=O)C5=O)cc3)CC2)c(F)c1.O [Form K of a free base of Compound 1]
Physical stability (DSC, PXRD, TGA) ([1]; 14 d at 40° C., 40° C./75% RH, 60° C., 60° C./75% RH, light chamber): there does not appear to be any major change in the crystal form and water content
physical and chemical stability ([1]; accelerated stability conditions): chemically and physically stable; also recorded: physically and chemically stable
Solid state chiral stability ([1]; accelerated stability conditions, initial 97.1 area % S-isomer): no change in the chiral stability
Solid state chemical stability (HPLC) ([1]; accelerated storage conditions, 14 d): no significant degradation was observed
Solid state chemical stability (HPLC), light ([1]; exposed to light (1.2 million lux)): Minor degradation
Solubility ([2]; FaSSIF): 1 µg/mL
Solubility ([2]; FeSSiF): 5 µg/mL
Solubility ([2]; SGF with pepsin): 420 µg/mL
Solubility ([2]; Water): <LOQ
Solubility ([2]; pH 1 buffer HC1/NaC1): 133 µg/mL
Solubility ([2]; pH 3 buffer (phosphate)): 90 µg/mL
Solubility ([2]; pH 4 buffer (acetate)): 11 µg/mL
Solubility ([2]; pH 5 buffer (acetate)): 1 µg/mL
Final pH ([2]; solubility sample in FaSSIF): 6.33
Final pH ([2]; solubility sample in FeSSiF): 5.02
Final pH ([2]; solubility sample in SGF with pepsin): 1.47
Final pH ([2]; solubility sample in Water): 6.71
Final pH ([2]; solubility sample in pH 1 buffer HC1/NaC1): 1.20
Final pH ([2]; solubility sample in pH 3 buffer (phosphate)): 3.09
Final pH ([2]; solubility sample in pH 4 buffer (acetate)): 3.98
Final pH ([2]; solubility sample in pH 5 buffer (acetate)): 5.01
